Drawing on ChEMBL document CHEMBL3217594, “Structureactivity relationships of methyl-lysine reader antagonists” (Medchemcomm, 2012), this text covers IC50 and inhibition for 15 compounds.

The target of assay [1] is T1, Chromobox protein homolog 7 (Homo sapiens, UniProt O95931).
T1 sequence (O95931 whole entry): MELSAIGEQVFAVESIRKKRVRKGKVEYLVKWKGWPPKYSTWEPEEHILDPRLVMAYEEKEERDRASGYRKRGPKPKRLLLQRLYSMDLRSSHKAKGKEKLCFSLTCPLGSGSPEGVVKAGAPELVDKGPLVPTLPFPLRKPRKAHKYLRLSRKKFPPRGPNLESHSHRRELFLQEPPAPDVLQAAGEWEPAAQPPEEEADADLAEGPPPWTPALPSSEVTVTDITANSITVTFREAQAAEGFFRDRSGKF
The assay is described as follows: Antagonist activity at Flag-tagged CBX7 (unknown origin) assessed as inhibition of CBX7/biotinylated H3K9Me3 peptide interaction after 30 mins by AlphaScreen assay.

Assay [2] deals with T2, Chromobox protein homolog 7 (Homo sapiens) (UniProt O95931).
T2 sequence (whole entry): T1 sequence (O95931 whole entry)
The assay is described as follows: Antagonist activity at Flag-tagged CBX7 (unknown origin) assessed as inhibition of CBX7/biotinylated H3K9Me3 peptide interaction at 30 uM after 30 mins by AlphaScreen assay.

Assay [3] concerns the target T3, Lethal(3)malignant brain tumor-like protein 4 (Homo sapiens) (UniProt Q8NA19).
T3 sequence (whole entry): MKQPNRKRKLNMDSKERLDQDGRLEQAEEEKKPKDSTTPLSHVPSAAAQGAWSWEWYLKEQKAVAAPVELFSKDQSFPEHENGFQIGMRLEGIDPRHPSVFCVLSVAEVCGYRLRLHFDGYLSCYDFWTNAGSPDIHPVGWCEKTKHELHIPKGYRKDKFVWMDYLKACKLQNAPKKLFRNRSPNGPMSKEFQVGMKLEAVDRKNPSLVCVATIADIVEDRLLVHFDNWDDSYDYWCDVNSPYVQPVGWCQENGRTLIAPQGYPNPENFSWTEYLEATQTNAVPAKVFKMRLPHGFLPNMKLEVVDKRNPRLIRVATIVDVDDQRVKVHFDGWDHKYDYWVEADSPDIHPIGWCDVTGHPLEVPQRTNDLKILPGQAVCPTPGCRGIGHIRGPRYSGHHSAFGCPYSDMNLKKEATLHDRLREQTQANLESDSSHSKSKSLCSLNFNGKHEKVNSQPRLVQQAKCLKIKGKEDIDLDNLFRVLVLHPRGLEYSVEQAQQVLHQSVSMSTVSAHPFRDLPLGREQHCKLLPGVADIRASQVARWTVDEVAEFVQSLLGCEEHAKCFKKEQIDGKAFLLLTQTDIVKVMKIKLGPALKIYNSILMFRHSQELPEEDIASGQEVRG
Description: Antagonist activity at L3MBTL4 (unknown origin) assessed as inhibition of L3MBTL4/biotinylated H2AK36Me1 peptide interaction at 30 uM after 30 mins by AlphaScreen assay. A general note: Alpha assays give light when donor and acceptor beads are brought close together.

In assay [4] the target is T4, Lethal(3)malignant brain tumor-like protein 1 (Homo sapiens) (UniProt Q9Y468).
T4 sequence (whole entry): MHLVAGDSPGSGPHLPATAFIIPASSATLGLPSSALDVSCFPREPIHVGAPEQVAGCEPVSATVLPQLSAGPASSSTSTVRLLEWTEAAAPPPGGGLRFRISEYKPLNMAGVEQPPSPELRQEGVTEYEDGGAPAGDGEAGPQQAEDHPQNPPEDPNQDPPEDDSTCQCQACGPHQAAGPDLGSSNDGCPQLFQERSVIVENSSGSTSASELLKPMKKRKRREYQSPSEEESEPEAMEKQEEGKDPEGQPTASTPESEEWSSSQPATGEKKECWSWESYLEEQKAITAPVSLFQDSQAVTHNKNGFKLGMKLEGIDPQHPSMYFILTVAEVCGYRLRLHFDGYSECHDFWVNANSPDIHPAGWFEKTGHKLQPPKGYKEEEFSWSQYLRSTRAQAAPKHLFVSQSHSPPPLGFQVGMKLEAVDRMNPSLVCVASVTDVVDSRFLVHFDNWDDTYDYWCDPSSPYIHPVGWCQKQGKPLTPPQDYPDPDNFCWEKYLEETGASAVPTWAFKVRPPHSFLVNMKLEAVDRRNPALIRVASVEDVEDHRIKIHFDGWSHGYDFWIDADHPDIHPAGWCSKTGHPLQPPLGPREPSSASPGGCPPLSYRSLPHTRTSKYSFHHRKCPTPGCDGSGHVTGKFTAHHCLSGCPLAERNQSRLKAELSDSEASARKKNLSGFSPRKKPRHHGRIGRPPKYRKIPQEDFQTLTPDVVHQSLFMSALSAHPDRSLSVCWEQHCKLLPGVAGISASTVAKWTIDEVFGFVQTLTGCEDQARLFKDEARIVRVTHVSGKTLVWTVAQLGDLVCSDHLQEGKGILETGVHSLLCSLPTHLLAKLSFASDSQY
To be noted: Plus RIL, 30 uM.

Assay [5] deals with T5, Scm-like with four MBT domains protein 1 (Homo sapiens, UniProt Q9UHJ3).
T5 sequence (Q9UHJ3 whole entry): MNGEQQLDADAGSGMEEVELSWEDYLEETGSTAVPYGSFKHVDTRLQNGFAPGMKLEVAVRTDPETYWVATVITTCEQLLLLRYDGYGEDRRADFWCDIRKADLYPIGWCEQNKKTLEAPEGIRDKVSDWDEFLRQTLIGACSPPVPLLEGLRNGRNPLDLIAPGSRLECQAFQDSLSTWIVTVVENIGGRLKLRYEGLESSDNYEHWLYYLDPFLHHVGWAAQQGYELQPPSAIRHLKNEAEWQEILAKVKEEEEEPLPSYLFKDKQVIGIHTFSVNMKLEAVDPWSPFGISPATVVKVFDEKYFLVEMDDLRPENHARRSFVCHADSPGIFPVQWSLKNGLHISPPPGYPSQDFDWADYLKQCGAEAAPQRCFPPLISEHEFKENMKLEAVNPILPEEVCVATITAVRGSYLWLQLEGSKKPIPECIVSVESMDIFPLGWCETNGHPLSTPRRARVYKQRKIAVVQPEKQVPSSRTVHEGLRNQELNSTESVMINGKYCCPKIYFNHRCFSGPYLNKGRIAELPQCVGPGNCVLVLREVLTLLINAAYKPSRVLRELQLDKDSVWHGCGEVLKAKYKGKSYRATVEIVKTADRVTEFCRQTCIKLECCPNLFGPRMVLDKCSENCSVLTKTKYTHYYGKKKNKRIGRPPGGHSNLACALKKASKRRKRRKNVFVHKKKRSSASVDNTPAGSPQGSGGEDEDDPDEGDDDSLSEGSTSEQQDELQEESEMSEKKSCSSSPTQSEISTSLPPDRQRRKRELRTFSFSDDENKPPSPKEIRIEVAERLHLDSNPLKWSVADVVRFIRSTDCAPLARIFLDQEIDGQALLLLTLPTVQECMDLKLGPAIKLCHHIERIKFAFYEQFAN
Description: Antagonist activity at SFMBT1 (unknown origin) assessed as inhibition of SFMBT1/biotinylated H3K9Me1 peptide interaction after 30 mins by AlphaScreen assay.

Active and inactive are the calls of the source. The calls are words filed in the database; no cut-off is given here. Bounds are passed on as bounds.

As for `Brc1cccc(CN2CCC(N3CCCC3)CC2)c1`, the concentration for half-maximal inhibition (IC50) in assay [1] and in assay [5] was above 30 µM in each case. The inhibition entry in assay [2] is “inactive”. In addition, the inhibition in assay [3] worked out at 10%; in assay [4], 20%.
Turning to `O=S(=O)(c1cccc(Br)c1)N1CCC(N2CCCC2)CC1`, the half-inhibitory concentration (IC50) in assay [1] and in assay [5] was above 30 µM in each case. Besides, the inhibition entry in assay [2] was “inactive”. Besides, the inhibition in assay [3] amounted to 6%; in assay [4], 48%.
For the compound `O=C(c1cccc(Br)c1)N1CCC(N2CCCC2)C1` (stereo not drawn), the IC50 in assay [1] and in assay [5] was above 30 µM each time. Also, the inhibition in assay [2] is 4%; in assay [4], 18%. Also, in assay [3], the inhibition result was “inactive”.
`O=C(O)c1cccc(C(=O)N2CCC(N3CCCC3)CC2)c1`: the concentration for half-maximal inhibition (IC50) in assay [1] and in assay [5] was above 30 µM each time. Further, the figures for the inhibition in assay [2], in assay [3] and in assay [4] were 4%, 26% and 31%, respectively.
Consider `CC1CCCN1C1CCN(C(=O)c2cccc(Br)c2)CC1` (stereo not drawn), for which the IC50 in assay [1] and in assay [5] was above 30 µM throughout. Besides, the inhibition result in assay [2] and in assay [3] was “inactive” throughout. Besides, the inhibition in assay [4] was 6%.
On to `O=C(c1cccc(Br)c1)N1CCC(C2CCCN2)CC1` (stereo not drawn), for which the concentration for half-maximal inhibition (IC50) in assay [1] and in assay [5] was above 30 µM each time. Moreover, the inhibition result in assay [2] and in assay [3] was “inactive” in each case. The inhibition in assay [4] was 6%.
With `O=C(c1cccc(Br)c1)N1CCN(C2CCCC2)CC1`, the 50% inhibitory concentration (IC50) in assay [1] and in assay [5] was above 30 µM throughout. The inhibition in assay [2] was 1%. Besides, the inhibition result in assay [3] and in assay [4] was “inactive” in each case.
With `C[N+]1(C2CCN(C(=O)c3cccc(Br)c3)CC2)CCCC1`, the concentration for half-maximal inhibition (IC50) in assay [1] and in assay [5] was above 30 µM throughout. The inhibition in assay [2] worked out at 17%. The inhibition entry in assay [3] and in assay [4] was “inactive” throughout.
Take `O=C(c1cccc(Br)c1)N1CCC(N2CCCCC2)CC1`: the IC50 in assay [1] and in assay [5] was above 30 µM throughout. The figures for the inhibition in assay [2] and in assay [4] were 3% and 5%, respectively. The inhibition result in assay [3] is “inactive”.
Regarding `CC(c1cccc(Br)c1)N1CCC(N2CCCC2)CC1` (racemic), the half-inhibitory concentration (IC50) in assay [1] and in assay [5] was above 30 µM in each case. Further, in assay [2], the inhibition entry was “inactive”. Moreover, the figures for the inhibition in assay [3] and in assay [4] were 13% and 25%, respectively.
For the compound `CN1CCCC1C1CCN(C(=O)c2cccc(Br)c2)CC1` (stereo not drawn), the IC50 in assay [1] and in assay [5] was above 30 µM each time. In addition, the inhibition entry in assay [2] and in assay [3] was “inactive” in each case. Moreover, the inhibition in assay [4] is 3%.
For `O=C(c1cccc(Br)c1)N1CCC(N2CCCC2)CC1`, the half-maximal inhibitory concentration (IC50) in assay [1] and in assay [5] was above 30 µM throughout. Further, in assay [2], the inhibition was determined as 11%.
With `CN(C)C1CCN(C(=O)c2cccc(Br)c2)CC1`, the half-inhibitory concentration (IC50) in assay [1] and in assay [5] was above 30 µM throughout. Also, the inhibition entry in assay [2] and in assay [3] was “inactive” in each case. Further, the inhibition in assay [4] was determined as 5%.
Regarding `O=C(c1cccc(Br)c1)N1CCC(N2CCC2)CC1`, the IC50 in assay [1] and in assay [5] was above 30 µM each time. The inhibition in assay [2] was 11%; in assay [3], 4%; in assay [4], 32%.
In the case of `CNC1CCN(C(=O)c2cccc(Br)c2)CC1`, the IC50 in assay [1] and in assay [5] was above 30 µM in each case. Further, the inhibition in assay [2] came to 3%. Besides, the inhibition result in assay [3] and in assay [4] was “inactive” in each case.

Broadly, the IC50 is the point on the concentration scale where inhibition reaches its midpoint. The inhibition is the change of the read-out against control, counted positive when it falls.
